Assay results reported in article PMC4715937 (Cancer research, 2016).

Key:
Assay type in all cases: cell-based, human
Ly19 cells = test: MTS assay of Ly19 cells with pro-oxidant and NF-κB inhibitor; details: 3 days; PS-1145 4 μM, pyocyanin 350 μM, single agents
Heme oxygenase-1 (HMOX1) = test: HMOX1 quantitative PCR and ELISA in DLBCL cells; details: Ly19 cells, inhibitor at 4μM, 24 hours
TMD8 cells = test: MTS cell proliferation assay, TMD8 cells; details: antibody alone, 48 hours

Question: What does the source list for O=C(Nc1cc(Cl)cc2c1[nH]c1cnccc12)c1cccnc1 [PS-1145]?
Answer: Ly19 growth (Ly19 cells): no effect on Ly19 growth; HMOX1 induction in the presence of pyocyanin (Heme oxygenase-1 (HMOX1)): reduced HMOX1 induction

Question: Cn1c2cccc(=O)c-2nc2ccccc21 [pyocyanin] was tested. Which Ly19 growth (Ly19 cells) did it give?
Answer: strongly inhibited lymphoma cell growth

Question: For ADALIMUMAB, which “cell growth of TMD8” value (TMD8 cells) is on record?
Answer: inhibited cell growth
